Data on 21 molecules can be found in BindingDB's records for doi:10.1111/j.1432-1033.1976.tb10435.x (Gesellschaft Fur Molekularbiolische Forschung Mbh, 1976).

One may read the Ki as the dissociation constant of the complex between target and ligand, obtained from inhibition or displacement.

Chain of Isoleucine--tRNA ligase (P00956 whole entry): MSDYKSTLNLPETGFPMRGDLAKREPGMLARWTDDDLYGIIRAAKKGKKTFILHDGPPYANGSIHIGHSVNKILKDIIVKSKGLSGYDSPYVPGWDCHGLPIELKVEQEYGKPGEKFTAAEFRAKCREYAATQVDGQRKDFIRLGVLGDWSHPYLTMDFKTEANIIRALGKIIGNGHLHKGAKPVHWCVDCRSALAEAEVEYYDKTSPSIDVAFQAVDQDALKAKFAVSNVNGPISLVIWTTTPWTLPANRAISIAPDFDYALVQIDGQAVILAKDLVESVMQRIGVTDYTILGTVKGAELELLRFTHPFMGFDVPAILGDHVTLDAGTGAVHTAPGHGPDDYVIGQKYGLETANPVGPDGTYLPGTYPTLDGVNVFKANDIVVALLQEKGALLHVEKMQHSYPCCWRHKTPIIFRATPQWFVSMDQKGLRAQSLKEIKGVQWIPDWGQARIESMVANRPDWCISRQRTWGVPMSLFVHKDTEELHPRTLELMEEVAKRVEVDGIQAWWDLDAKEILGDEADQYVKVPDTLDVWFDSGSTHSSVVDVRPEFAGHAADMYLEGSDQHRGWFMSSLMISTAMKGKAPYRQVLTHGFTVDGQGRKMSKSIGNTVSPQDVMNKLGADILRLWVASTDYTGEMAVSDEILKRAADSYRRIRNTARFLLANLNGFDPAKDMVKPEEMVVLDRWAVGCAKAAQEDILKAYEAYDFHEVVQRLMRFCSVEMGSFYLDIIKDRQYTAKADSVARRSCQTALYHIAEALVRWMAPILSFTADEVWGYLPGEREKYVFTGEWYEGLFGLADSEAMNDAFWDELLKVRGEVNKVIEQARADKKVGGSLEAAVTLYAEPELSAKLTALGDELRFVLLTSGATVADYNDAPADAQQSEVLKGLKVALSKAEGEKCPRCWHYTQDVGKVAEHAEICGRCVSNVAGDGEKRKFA

This assay has as its target Isoleucine--tRNA ligase (Escherichia coli (strain K12), UniProt P00956). Briefly: Competitive Ligand Binding Assay. Particulars: pH 7.5; 20 °C. An excerpt:
Utilizing an analytical ultracentrifuge, the binding constants of various amino acids and isoleucine analogues to IleRS were estimated from their competition with radioactively labeled L-isoleucine.
The molecule `CCC[C@@H](CC)C(N)C(=O)O` (mixture of isomers) [(3R)-2-amino-3-ethylhexanoic acid] displayed a Ki of 5 mM.

The molecule `CCC(C)(C)[C@H](N)C(=O)O` (racemic) [2-amino-3,3-dimethylpentanoic acid] returned a Ki of 1.25 mM.

For `CC(C)(C)CC(N)C(=O)O` (racemic) [2-amino-4,4-dimethylpentanoic acid], the Ki came out at 12.5 mM.

For `CC(C)CCC(N)C(=O)O` (racemic) [2-amino-5-methylhexanoic acid], the affinity, expressed as Ki, was 3.33 mM. Against the preceding molecule, the Ki is about 3.8-fold lower.

Molecule `CCC(CC)C(N)C(=O)O` (stereo unspecified) [2-amino-3-ethylpentanoic acid] gave a Ki of 0.53 mM.

Regarding `CCC(CC)[C@H](N)C(=O)O` [(2S)-2-amino-3-ethylpentanoic acid], the Ki was found to be 0.56 mM.

In turn, `CC(C)[C@H](N)CO` [(2S)-2-amino-3-methylbutan-1-ol] showed a Ki of 14.3 mM.

Molecule `CCC(C)[C@H](N)CO` (stereo partly drawn) [(2S)-2-amino-3-methylpentan-1-ol] came in with a Ki of 8.33 mM.

Turning to `CC(C)(C)C[C@H](N)C(=O)O` [(2S)-2-amino-4,4-dimethylpentanoic acid], the affinity, expressed as Ki, was 12.5 mM. This Ki is about 1.5-fold higher than that of the molecule before.

`CC(C)CC[C@H](N)C(=O)O` [(2S)-2-amino-5-methylhexanoic acid] registered a Ki of 2.5 mM.

`CCCCC[C@H](N)C(=O)O` [(2S)-2-aminoheptanoic acid] came in with a Ki of 16.7 mM.

Molecule `CC(C)[C@@H](C)[C@H](N)C(=O)O` [(2S,3R)-2-amino-3,4-dimethylpentanoic acid] came in with a Ki of 5 mM.

Take `CC(C)[C@H](C)[C@H](N)C(=O)O` [(2S,3S)-2-amino-3,4-dimethylpentanoic acid]: affinity was put at a Ki of 0.0455 mM.

`CCC[C@H](C)[C@H](N)C(=O)O` [(2S,3S)-2-amino-3-methylhexanoic acid] yielded a Ki of 0.05 mM.

In the case of `CC[C@H](C)C[C@H](N)C(=O)O` [(2S,4S)-2-amino-4-methylhexanoic acid], the affinity corresponds to a Ki of 2 mM.

With `CC(C)[C@@H](C)C(N)C(=O)O` (stereo partly drawn) [(3R)-2-amino-3,4-dimethylpentanoic acid], the affinity corresponds to a Ki of 3.33 mM.

In the case of `CCCC[C@@H](C)C(N)C(=O)O` (stereo partly drawn) [(3R)-2-amino-3-methylheptanoic acid], the Ki is 16.7 mM. This Ki lies about 5-fold higher than the previous one.

Regarding `CCC[C@@H](C)C(N)C(=O)O` (stereo partly drawn) [(3R)-2-amino-3-methylhexanoic acid], the Ki was 1.67 mM.

Consider `CCC[C@H](CC)C(N)C(=O)O` (stereo partly drawn) [(3S)-2-amino-3-ethylhexanoic acid], for which the Ki amounted to 5 mM.

In turn, `CCCC[C@H](C)C(N)C(=O)O` (stereo partly drawn) [(3S)-2-amino-3-methylheptanoic acid] had a Ki of 2.5 mM.

Molecule `CCC[C@H](C)C(N)C(=O)O` (stereo partly drawn) [(3S)-2-amino-3-methylhexanoic acid] showed an inhibition constant Ki of 0.0588 mM.
